# Experimental data as given in US8846570B2, “Herbicidal compositions comprising 4-amino-3-chloro-5-fluoro-6-(4-chloro-2-fluoro-3-methoxyphenyl)pyridine-2-carboxylic acid or a derivative thereof and microtubule inhibiting herbicides” (Dow AgroSciences LLC, priority 2012, dated 2014).
# Where two headings read alike, the source gives them in different places.
# What was measured:
# Type in all cases: in vivo
# [1] = test system: Leptochloa chinensis (L.) Nees (LEFCH); assay: In-water applied, transplanted paddy rice, greenhouse: visual weed control; conditions: 21 DAA
# Procedure: Weed seeds or nutlets of the desired test plant species were planted in puddled soil (mud) prepared by mixing a shredded, non-sterilized mineral soil (50.5 percent silt, 25.5 percent clay, and 24 percent sand, with a pH of about 7.6 and an organic matter content of about 2.9 percent) and water at a 1:1 volumetric ratio. The prepared mud was dispensed in 365 mL aliquots into 16-ounce (oz.) non-perforated plastic pots with a surface area of 86.59 square centimeters (cm^2) leaving a headspace of 3 centimeters (cm) in each pot. Mud was allowed to dry overnight prior to planting or transplanting. Rice seeds were planted in Sun Gro MetroMix® 306 planting mixture, which typically has a pH of 6.0 to 6.8 and an organic matter content of about 30 percent, in plastic plug trays. Seedlings at the second or third leaf stage of growth were transplanted into 860 mL of mud contained in 32-oz. non-perforated plastic pots with a surface area of 86.59 cm^2 4 days prior to herbicide application. The paddy was created by filling the headspace of the pots with 2.5 to 3 cm of water. When required to ensure good germination and healthy plants, a fungicide treatment and/or other chemical or physical treatment was applied. The plants were grown for 4-22 days in a greenhouse with an approximate 14 h photoperiod which was maintained at about 29° C. during the day and 26° C. during the night. Nutrients were added as Osmocote® (19:6:12, N:P:K+minor nutrients) at 2 g per 16.-oz. pot and 4 g per 32-oz. pot. Water was added on a regular basis to maintain the paddy flood, and supplemental lighting was provided with overhead metal halide 1000-Watt lamps as necessary. The plants were employed for testing when they reached the first through fourth true leaf stage.
# Treatments consisted of the acid or esters of 4-amino-3-chloro-5-fluoro-6-(4-chloro-2-fluoro-3-methoxy-phenyl)pyridine-2-carboxylic acid (compound A) each formulated as an SC and various herbicidal components alone and in combination. Forms of compound A were applied on an acid equivalent basis.
# Treatment requirements for each compound or herbicidal component were calculated based upon the rates being tested, the concentration of active ingredient or acid equivalent in the formulation, an application volume of 2 mL per component per pot, and an application area of 86.59 cm^2 per pot.
# For formulated compounds, a measured amount was placed in an individual 100 or 200 mL glass vial and was dissolved in a volume of 1.25% (v/v) Agri-Dex® crop oil concentrate to obtain application solutions.
# For technical grade compounds, a weighed amount was placed in an individual 100 to 200 mL glass vial and was dissolved in a volume of acetone to obtain concentrated stock solutions. […] The concentrated stock solutions obtained were diluted with an equivalent volume of an aqueous mixture containing 2.5% (v/v) crop oil concentrate so that the final application solutions contained 1.25% (v/v) crop oil concentrate.
# Applications were made by injecting, with a pipetter, appropriate amounts of the application solutions into the aqueous layer of the paddy. Control plants were treated in the same manner with the solvent blank. Applications were made so that all treated plant material received the same concentrations of acetone and crop oil concentrate.
# The treated plants and control plants were placed in a greenhouse as described above and water was added as needed to maintain a paddy flood. After approximately 3 weeks the condition of the test plants as compared with that of the untreated plants was determined visually and scored on a scale of 0 to 100 percent where 0 corresponds to no injury or growth inhibition and 100 corresponds to complete kill.
# (§1) Colby's equation was used to determine the herbicidal effects expected from the mixtures (Colby, S. R. 1967. Calculation of the synergistic and antagonistic response of herbicide combinations. Weeds 15:20-22.). […]
# [2] = test system: Echinochloa crusgalli (L.) Beauv. (ECHCG); assay: Postemergence foliar-applied, direct seeded rice, greenhouse: visual weed control; conditions: 21 DAA
# Procedure: (§2) Seeds or nutlets of the desired test plant species were planted in a soil matrix prepared by mixing a loam or sandy loam soil (e.g., 28.6 percent silt, 18.8 percent clay, and 52.6 percent sand, with a pH of about 5.8 and an organic matter content of about 1.8 percent) and calcareous grit in an 80 to 20 ratio. The soil matrix was contained in plastic pots with a volume of 1 quart and a surface area of 83.6 cm^2. […] The plants were grown for 8-22 days in a greenhouse with an approximate 14 h photoperiod which was maintained at about 29° C. during the day and 26° C. during the night. Nutrients (Peters Excel® 15-5-15 5-Ca 2-Mg and iron chelate) were applied in the irrigation solution as needed and water was added on a regular basis. Supplemental lighting was provided with overhead metal halide 1000-Watt lamps as necessary. The plants were employed for testing when they reached the first through fourth true leaf stage.
# (§3) Forms of compound A were applied on an acid equivalent basis.
# (§4) For treatments comprised of formulated compounds, measured amounts of compounds were placed individually in 25 mL glass vials and diluted in a volume of 1.25% (v/v) Agri-Dex® crop oil concentrated to obtain 12× stock solutions. […] Application solutions were prepared by adding an appropriate amount of each stock solution (e.g., 1 mL) and diluted to the appropriate final concentrations with the addition of 10 mL of an aqueous mixture of 1.25% (v/v) crop oil concentrate so that the final spray solutions contained 1.25+/−0.05% (v/v) crop oil concentrate.
# (§5) As required, additional water and/or 97:3 v/v acetone/DMSO was added to individual application solutions so that the final acetone and DMSO concentrations of the application solutions being compared were 8.1% and 0.25%, respectively.
# (§6) All stock solutions and applications solutions were visually inspected for compound compatibility prior to application. Spray solutions were applied to the plant material with an overhead Mandel track sprayer equipped with a 8002E nozzles calibrated to deliver 187 L/ha over an application area of 0.503 m^2 at a spray height of 18 to 20 inches (46 to 50 cm) above average plant canopy height. Control plants were sprayed in the same manner with the solvent blank.
# (§7) The treated plants and control plants were placed in a greenhouse as described above and watered by sub-irrigation to prevent wash-off of the test compounds. After approximately 3 weeks, the condition of the test plants as compared with that of the untreated plants was determined visually and scored on a scale of 0 to 100 percent where 0 corresponds to no injury or growth inhibition and 100 corresponds to complete kill.
# (§8) Colby's equation was used to determine the herbicidal effects expected from the mixtures (Colby, S. R. 1967. Calculation of the synergistic and antagonistic response of herbicide combinations. Weeds 15:20-22.).
# (§9) The following equation was used to calculate the expected activity of mixtures containing two active ingredients, A and B: Expected=A+B−(A×B/100)
# [3] = test system: Ipomoea hederacea Jacq. (IPOHE); assay: as above; conditions: post-emergence, read-out: Visual Weed Control (%) Obs
# Procedure: as §2, §3, §4, §5, §6, §7, §8, §9
# [4] = test system: Ipomoea hederacea (L.) Jacq. (IPOHE); assay: Pre-emergence soil-applied, greenhouse: visual weed control; conditions: Propyzamide 1120 g ai/ha alone; soil-applied pre-emergence; 33 DAA
# Description: (§10) Seeds or nutlets of the desired test plant species were planted in a soil matrix prepared by mixing a loam soil (e.g., 32 percent silt, 23 percent clay, and 45 percent sand, with a pH of about 6.5 and an organic matter content of about 1.9 percent) and calcareous grit in an 80 to 20 ratio. The soil matrix was contained in plastic pots with a volume of 1 quart and a surface area of 83.6 square centimeters (cm^2).
# as §3
# (§11) For treatments comprised of formulated compounds, measured amounts of compounds were placed individually in 25 mL glass vials and diluted in a volume of 1.25% (v/v) Agri-Dex® crop oil concentrate (COC) to obtain 12× stock solutions. […] Application solutions were prepared by adding an appropriate amount of each stock solution (e.g., 1 mL) and diluted to the appropriate final concentrations with the addition of 10 mL of an aqueous mixture of 1.25% (v/v) COC so that the final spray solutions contained 1.25% (v/v) COC.
# (§12) For treatments comprised of formulated and technical compounds, weighed amounts of the technical materials were placed individually in 25 mL glass vials and dissolved in a volume of 97:3 (v/v) acetone/DMSO to obtain 12× stock solutions, and measured amounts of the formulated compounds were placed individually in 25 mL glass vials and diluted in a volume of 1.5% (v/v) COC or water to obtain 12× stock solutions. […] Application solutions were prepared by adding an appropriate amount of each stock solution (e.g., 1 mL) and diluted to the appropriate final concentrations with the addition of an appropriate amount of an aqueous mixture of 1.5% (v/v) COC so that the final spray solutions contained 1.25% (v/v) COC. As required, additional water and/or 97:3 (v/v) acetone/DMSO was added to individual application solutions so that the final acetone and DMSO concentrations of the application solutions being compared were 8.1% and 0.25%, respectively.
# (§13) All stock solutions and applications solutions were visually inspected for compound compatibility prior to application. Spray solutions were applied to the soil with an overhead Mandel track sprayer equipped with a 8002E nozzles calibrated to deliver 187 L/ha over an application area of 0.503 m^2 at a spray height of 18 inches (46 cm) above average pot height. Control pots were sprayed in the same manner with the solvent blank.
# The treated and control pots were placed in a greenhouse and top watered as needed. […] The pots were maintained in a greenhouse with an approximate 14 hr photoperiod which was maintained at about 29° C. during the day and 26° C. during the night. Nutrients (Peters® Excel 15-5-15 5-Ca 2-Mg) were applied in the irrigation solution as needed and water was added on a regular basis. Supplemental lighting was provided with overhead metal halide 1000-Watt lamps as necessary. After approximately 4 weeks, the condition of the test plants as compared with that of the untreated plants was determined visually and scored on a scale of 0 to 100 percent where 0 corresponds to no injury or growth inhibition and 100 corresponds to complete kill.
# as §8, §9
# [5] = test system: Setaria faberi Herrm. (SETFA); assay: as above
# Description: as §10
# (§14) Treatments consisted of the benzyl ester of 4-amino-3-chloro-5-fluoro-6-(4-chloro-2-fluoro-3-methoxy-phenyl)pyridine-2-carboxylic acid (compound A) formulated as an SC (suspension concentrate) and various herbicidal components alone and in combination. Forms of compound A were applied on an acid equivalent basis.
# (§15) Treatment requirements were calculated based upon the rates being tested, the concentration of active ingredient or acid equivalent in the formulation, and a 12 mL application volume at a rate of 187 L/ha.
# as §11, §12, §13
# (§16) The treated and control pots were placed in a greenhouse and top watered as needed. When required to ensure good germination and healthy plants, a fungicide treatment and/or other chemical or physical treatment was applied. The pots were maintained in a greenhouse with an approximate 14 hr photoperiod which was maintained at about 29° C. during the day and 26° C. during the night. Nutrients (Peters® Excel 15-5-15 5-Ca 2-Mg) were applied in the irrigation solution as needed and water was added on a regular basis. Supplemental lighting was provided with overhead metal halide 1000-Watt lamps as necessary. After approximately 4 weeks, the condition of the test plants as compared with that of the untreated plants was determined visually and scored on a scale of 0 to 100 percent where 0 corresponds to no injury or growth inhibition and 100 corresponds to complete kill.
# as §1
# [6] = test system: Sesbania exaltata (Raf.) Cory/Rydb. Ex Hill (SEBEX); assay: as above
# Description: as §10, §14, §15, §11, §12, §13, §16, §1
# [7] = test system: Echinochloa crus-galli (L.) P. Beauv. (ECHCG); assay: as above
# Description: as §10, §14, §15, §11, §12, §13, §16, §1
# [8] = test system: Brachiaria platyphylla (Groseb.) Nash or Urochloa platyphylla (Nash) R.D. Webster (BRAPP); assay: as above
# Description: as §10, §14, §15, §11, §12, §13, §16, §1
# [9] = test system: Echinochloa colonum (L.) Link (ECHCO); assay: as above
# Description: as §10, §14, §15, §11, §12, §13, §16, §1
# [10] = test system: Xanthium strumarium L. (XANST); assay: as above; conditions: 27 DAA
# Description: as §10, §14, §15, §11, §12, §13, §16, §1
compound,measurement,setting,value
CCCCOC(=O)c1nc(-c2ccc(Cl)c(OC)c2F)c(F)c(N)c1Cl [Compound A n-Butyl Ester],Visual Weed Control (%) Obs,[1]; 35 g ae/ha,8%
same,Visual Weed Control (%) Obs,[1]; 70 g ae/ha,38%
same,Visual Weed Control (%) Obs,[2]; 17.5 g ae/ha,45%
same,Visual Weed Control (%) Obs,[2]; 35 g ae/ha,70%
same,pest or weed control at 17.5 g/ha,[3]; 504 h,40%
C#CC(C)(C)NC(=O)c1cc(Cl)cc(Cl)c1 [Propyzamide],Visual Weed Control (%) - 33 DAA IPOHE Obs,[4],35%
same,Visual Weed Control (%) - 33 DAA SETFA Obs,[5]; Propyzamide 280 g ai/ha alone,0%
same,Visual Weed Control (%) - 33 DAA SETFA Obs,[5]; Propyzamide 560 g ai/ha alone,68%
same,Visual Weed Control (%) - 33 DAA SETFA Obs,[5]; Propyzamide 1120 g ai/ha alone,93%
same,Visual Weed Control (%) - 33 DAA SEBEX Obs,[6]; Propyzamide 280 g ai/ha alone,20%
same,Visual Weed Control (%) - 33 DAA SEBEX Obs,[6]; Propyzamide 560 g ai/ha alone,13%
same,Visual Weed Control (%) - 33 DAA SEBEX Obs,[6]; Propyzamide 1120 g ai/ha alone,37%
same,Visual Weed Control (%) - 33 DAA ECHCG Obs,[7]; Propyzamide 560 g ai/ha alone,35%
same,Visual Weed Control (%) - 33 DAA ECHCG Obs,[7]; Propyzamide 1120 g ai/ha alone,53%
same,Visual Weed Control (%) - 33 DAA BRAPP Obs,[8]; Propyzamide 280 g ai/ha alone,20%
same,Visual Weed Control (%) - 33 DAA BRAPP Obs,[8]; Propyzamide 560 g ai/ha alone,37%
same,Visual Weed Control (%) - 33 DAA ECHCO Obs,[9]; Propyzamide 280 g ai/ha alone,0%
same,Visual Weed Control (%) - 33 DAA ECHCO Obs,[9]; Propyzamide 560 g ai/ha alone,23%
same,Visual Weed Control (%) - 33 DAA ECHCO Obs,[9]; Propyzamide 1120 g ai/ha alone,80%
same,pest or weed control at 70 g/ha,"[3]; 528 h, 22 DAA, 70 g ai/ha",0%
same,pest or weed control at 140 g/ha,"[3]; 528 h, 22 DAA, 140 g ai/ha",0%
same,pest or weed control at 280 g/ha,"[3]; 528 h, 22 DAA, 280 g ai/ha",0%
"COC(=O)c1c(C(F)F)nc(C(F)(F)F)c(C2=NCCS2)c1CC(C)C [Thiazopyr, methyl 2-(difluoromethyl)-5-(4,5-dihydro-2-thiazolyl)-4-(2-methylpropyl)-6-(trifluoromethyl)-3-pyridinecarboxylate]",Visual Weed Control (%) Obs,[10]; 280 g ai/ha,15%
same,Visual Weed Control (%) Obs,[10]; 560 g ai/ha,10%
same,pest or weed control at 280 g/ha,[3]; 480 h,40%
